Experimental data reported in patent US6770467B2, “Screening method for ligands with class II P13 kinase modulating activity” (Ludwig Institute for Cancer Research, priority 1997, dated 2004).
Where two headings read alike, the source gives them in different places.

What was measured:
p110α = p110α (UniProt P32871); test: PI 3-kinase lipid kinase assay with recombinant GST-p110α, PtdIns as substrate; assay type: biochemical
Protocol: Typically, PI 3-kinase assays were performed in a total volume of 50 μl containing 20 mM Hepes pH7.4. 100 mM NaCl, 0.1 mM EGTA, 0.1% β-mercaptoethanol, and 200 μM phosphoinositide. After preincubating sonicated lipid with sample for 10 minutes, the reactions were initiated upon the addition of 2.5 mM MgCl2, 100 mM ATP (0.2 μCiγ[^32 P] ATP). Assays were incubated at 30° C. for 20 minutes and terminated with acidified chloroform:methanol. The extracted lipid products were analysed by thin layer chromatography using Silica gel 60 plates and chloroform:methanol:4M ammonium hydroxide (45:35:10) for assays examining phosphorylation of Ptdlns. When separations of PtdIns 3P, PtdIns (3,4) P2 and PItdIns (3,4,5) P3 was required, propan-1-ol: 2M acetic acid (65:35) was used. Phosphorylated lipids were visualised by either autoradiography or by phosphoimage analysis (Molecular Dynamics). Assays were linear with respect to time and enzyme addition.
(§1) The effect of these inhibitors on the lipid kinase activity of PI3K-C2α was examined, using PtdIns as a substrate, in the presence of increasing concentrations of each inhibitor.

PI3K-C2α = biological target: T1, PI3K-C2α (Homo sapiens, UniProt O00443); test: PI 3-kinase lipid kinase assay with recombinant GST-PI3K-C2α, PtdIns as substrate; assay type: biochemical
T1 construct: made in house; host or cells: Sf9 insect cells (baculovirus, pAcGex vector)
T1 sequence (O00443 148-1686): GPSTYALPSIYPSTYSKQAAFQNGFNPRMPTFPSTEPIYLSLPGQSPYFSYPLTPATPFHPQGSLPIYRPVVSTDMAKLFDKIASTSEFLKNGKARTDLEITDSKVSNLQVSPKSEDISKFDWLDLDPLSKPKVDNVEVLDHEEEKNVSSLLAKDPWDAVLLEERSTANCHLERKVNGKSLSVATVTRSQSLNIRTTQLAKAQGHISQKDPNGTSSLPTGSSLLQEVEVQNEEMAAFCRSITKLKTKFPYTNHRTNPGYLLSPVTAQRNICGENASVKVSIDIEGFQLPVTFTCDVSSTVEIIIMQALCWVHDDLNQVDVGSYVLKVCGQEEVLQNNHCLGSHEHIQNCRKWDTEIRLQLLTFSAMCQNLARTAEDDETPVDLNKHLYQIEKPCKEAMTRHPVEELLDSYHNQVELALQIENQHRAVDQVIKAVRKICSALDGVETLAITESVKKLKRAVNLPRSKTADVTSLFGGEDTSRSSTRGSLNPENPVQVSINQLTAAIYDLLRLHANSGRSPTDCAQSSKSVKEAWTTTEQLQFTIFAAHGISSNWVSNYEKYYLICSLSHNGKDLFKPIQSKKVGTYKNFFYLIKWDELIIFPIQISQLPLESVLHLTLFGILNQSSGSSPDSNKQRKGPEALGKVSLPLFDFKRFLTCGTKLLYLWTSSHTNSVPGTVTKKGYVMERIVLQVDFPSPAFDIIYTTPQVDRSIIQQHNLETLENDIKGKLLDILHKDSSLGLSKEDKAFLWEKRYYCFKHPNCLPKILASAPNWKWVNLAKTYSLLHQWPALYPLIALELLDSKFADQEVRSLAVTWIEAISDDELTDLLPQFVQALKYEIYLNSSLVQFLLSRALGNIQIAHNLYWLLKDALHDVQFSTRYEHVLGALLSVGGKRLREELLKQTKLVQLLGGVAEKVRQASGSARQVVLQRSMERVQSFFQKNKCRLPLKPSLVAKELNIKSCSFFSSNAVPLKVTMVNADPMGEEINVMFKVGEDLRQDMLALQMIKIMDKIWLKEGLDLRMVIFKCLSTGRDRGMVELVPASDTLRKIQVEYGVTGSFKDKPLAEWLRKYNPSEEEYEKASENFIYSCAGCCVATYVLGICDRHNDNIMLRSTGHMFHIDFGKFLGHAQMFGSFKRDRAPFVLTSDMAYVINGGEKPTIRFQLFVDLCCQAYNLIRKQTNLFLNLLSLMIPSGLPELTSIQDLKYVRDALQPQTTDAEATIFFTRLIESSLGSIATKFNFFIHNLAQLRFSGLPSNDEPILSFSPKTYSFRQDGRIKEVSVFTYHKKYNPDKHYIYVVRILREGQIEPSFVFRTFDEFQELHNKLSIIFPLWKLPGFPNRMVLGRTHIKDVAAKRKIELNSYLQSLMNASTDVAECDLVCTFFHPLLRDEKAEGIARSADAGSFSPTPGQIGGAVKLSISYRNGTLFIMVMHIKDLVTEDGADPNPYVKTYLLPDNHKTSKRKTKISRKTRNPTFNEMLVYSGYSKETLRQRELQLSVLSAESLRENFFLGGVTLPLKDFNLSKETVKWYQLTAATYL
Protocol: Typically, PI 3-kinase assays were performed in a total volume of 50 μl containing 20 mM Hepes pH7.4. 100 mM NaCl, 0.1 mM EGTA, 0.1% β-mercaptoethanol, and 200 μM phosphoinositide. After preincubating sonicated lipid with sample for 10 minutes, the reactions were initiated upon the addition of 2.5 mM MgCl2, 100 mM ATP (0.2 μCiγ[^32 P] ATP). Assays were incubated at 30° C. for 20 minutes and terminated with acidified chloroform:methanol. The extracted lipid products were analysed by thin layer chromatography using Silica gel 60 plates and chloroform:methanol:4M ammonium hydroxide (45:35:10) for assays examining phosphorylation of Ptdlns. When separations of PtdIns 3P, PtdIns (3,4) P2 and PItdIns (3,4,5) P3 was required, propan-1-ol: 2M acetic acid (65:35) was used. Phosphorylated lipids were visualised by either autoradiography or by phosphoimage analysis (Molecular Dynamics).
The enzymatic activity and substrate specificity were investigated and compared to that of GST-p110α expressed in the same system.
as §1

Row | concentration giving maximal inhibition of p110α (p110α; LY294002, FIG. 5B) [µM] | IC50 (PI3K-C2α) [µM] | difference in sensitivity between PI3K-C2α and p110α (PI3K-C2α; LY294002, PI3K-C2α less sensitive than p110α) | concentration giving maximal attenuation of PI3K-C2α lipid kinase activity (PI3K-C2α; LY294002, PtdIns substrate) [mM] | SMILES | IC50 (p110α; read-out: IC50 of p110α lipid kinase activity, Wortmannin, FIG. 5A) [nM] | IC50 (PI3K-C2α; Wortmannin, PtdIns substrate, FIG. 5A) [µM]
1 | 300 | 20 | approximately one order of magnitude | 2 | O=c1cc(N2CCOCC2)oc2c(-c3ccccc3)cccc12 [LY294002, 2-(4-morpholinyl)-8-phenyl-4H-1-benzopyran-4-one] | – | –
2 | – | – | – | – | COC[C@H]1OC(=O)c2coc3c2[C@@]1(C)C1=C(C3=O)[C@@H]2CCC(=O)[C@@]2(C)C[C@H]1OC(C)=O [Wortmannin] | 3 | 0.2
